Consider twelve molecules from ChEMBL document CHEMBL1201862, “PubChem BioAssay data set” (2004).

Holding throughout (assay): growth of human tumour cells (NCI), 48 h
The test system of assay [1] is SNB-19.
Assay [2] relates to SK-MEL-5.
Assay [3] has as its system HOP-62.
The subject of assay [4] is RXF 393.
Assay [5] deals with HOP-92.
Assay [6] relates to SK-MEL-2.
The subject of assay [7] is SR.
The test system of assay [8] is SN12C.
Assay [9] concerns OVCAR-8.
The subject of assay [10] is UACC-62.
Assay [11] concerns SF-268.
Assay [12] deals with TK-10.
Assay [13] has as its system ACHN.
Assay [14] deals with A549.
The test system of assay [15] is EKVX.
In assay [16] the test system is PC-3.
In assay [17] the test system is MDA-MB-435.
Assay [18] relates to T47D.
The test system of assay [19] is Hs-578T.

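48-hour exposure; five concentrations; linearly interpolated endpoints. GI50: concentration for 50% inhibition of growth.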 Active and inactive are the calls of the source. Rule as the data show it: active = GI50 up to about 1.1 µM and inactive = higher.

Turning to `CS(=O)(=O)ON1C(=O)c2ccc(N)cc2C1=O`, the GI50 in [1] is > 100 µM (inactive); in assay [2], > 100 µM (inactive); in assay [3], > 55.5 µM (inactive); in assay [4], > 40.9 µM (inactive); in [5] it was > 100 µM (inactive); in [6], > 100 µM (inactive). For the same molecule, the GI50 in assay [7] is 30 µM (inactive); in assay [8] it was > 100 µM (inactive); in assay [9] it was 21.7 µM (inactive); in [10] it was > 64 µM (inactive); in [11], > 50.6 µM (inactive); in assay [12], > 100 µM (inactive). Moreover, the GI50 in [13], in assay [14] and in assay [15] was > 100 µM (inactive) throughout.

With `C#CC(O)/C=C/C(O)CCCC(O)CC#CC(O)C#CC(O)CCCC(O)/C=C/CCCCCC(=O)CCCCCCCCCCCCCC(O)C(O)C#CC(=O)O` (stereo unspecified), the GI50 in assay [16] is > 50 µM (inactive); in assay [1] it was > 50 µM (inactive); in [2] it was > 50 µM (inactive); in assay [17], > 50 µM (inactive); in assay [18] it was 10.9 µM (inactive); in [3], > 50 µM (inactive). Also, the GI50 was 12.2 µM (inactive) in assay [19]; 13.5 µM (inactive) in assay [5]; 15 µM (inactive) in assay [6]; 13.1 µM (inactive) in [7]; > 50 µM (inactive) in assay [8]; > 50 µM (inactive) in [9]. Further, the GI50 in assay [10], in assay [11], in [12], in assay [13], in assay [14] and in [15] was > 50 µM (inactive) in each case.

Turning to `C=C(OC1C(C)=C2C(C1OC(=O)CCCCCCC)C(C)(OC(C)=O)CC(OC(=O)CCC)C1(O)C2OC(=O)C1(C)O)/C(C)=C/C` (stereo unspecified), the GI50 is < 0.0001 µM (active) in assay [16]; 0.0422 µM (active) in assay [1]; 0.0125 µM (active) in assay [2]; < 0.0001 µM (active) in assay [17]; 0.000135 µM (active) in [18]; 0.0125 µM (active) in assay [4]. Moreover, the GI50 was 0.0125 µM (active) in assay [5]; 0.0125 µM (active) in [6]; 0.000145 µM (active) in [7]; 0.0125 µM (active) in assay [8]; 0.0125 µM (active) in [9]; 0.0125 µM (active) in assay [10]. Further, the GI50 is 0.0125 µM (active) in assay [11], 0.000585 µM (active) in assay [13], 0.0125 µM (active) in [14] and 0.0334 µM (active) in assay [15].

For the molecule `CN(CCO)c1nc(=O)c2c(n1C1OC(CO)C(O)C(O)C1O)CCCC2` (stereo unspecified), the GI50 in [1], in assay [2], in [3], in assay [4], in assay [5] and in assay [6] was > 100 µM (inactive) throughout. Besides, the GI50 in [7], in assay [8], in [9], in assay [10], in assay [11] and in assay [12] was > 100 µM (inactive) each time. Moreover, the GI50 in [13], in assay [14] and in [15] was > 100 µM (inactive) in each case.

Turning to `COc1cc2c(cc1OCCCOc1cc(-c3ccc(F)cc3)nc(C)n1)N=C[C@@H]1CCCN1C2=O`, the GI50 was 20.1 µM (inactive) in [1]; 15.9 µM (inactive) in [2]; 15.2 µM (inactive) in assay [17]; 25.8 µM (inactive) in assay [18]; 20.2 µM (inactive) in assay [4]; 24.7 µM (inactive) in [19]. In addition, the GI50 is 27.4 µM (inactive) in assay [5]; 17.2 µM (inactive) in [6]; 10.4 µM (inactive) in assay [7]; 16.5 µM (inactive) in assay [8]; 24.5 µM (inactive) in assay [9]; 14.5 µM (inactive) in [10]. The GI50 in [11] was 17.2 µM (inactive); in assay [12], 18.1 µM (inactive); in [13] it was 16.1 µM (inactive); in assay [14] it was 18.2 µM (inactive); in assay [15], 18.9 µM (inactive).

For `CCOC(=O)Nc1[nH]cc(-c2ccccc2)c1C#N`, the GI50 in [16], in assay [1], in assay [2], in assay [17], in assay [3] and in assay [19] was > 100 µM (inactive) in each case. Further, the GI50 in assay [6], in [7], in [8], in [9], in [10] and in assay [11] was > 100 µM (inactive) each time. In addition, the GI50 in assay [12], in assay [13], in assay [14] and in assay [15] was > 100 µM (inactive) throughout.

For the molecule `O=C(N/C=C/C=C/Sc1ccccc1)OCc1ccccc1`, the GI50 in assay [1] was 33.3 µM (inactive); in [2], 17.7 µM (inactive); in assay [3] it was 24.5 µM (inactive); in [4], 20.1 µM (inactive); in assay [5], 23.2 µM (inactive); in [6], > 10 µM (inactive). In addition, the GI50 in assay [7] was 36.3 µM (inactive); in assay [8], 17.1 µM (inactive); in assay [9], 15.7 µM (inactive); in [10], 16 µM (inactive); in assay [11], 17.5 µM (inactive); in [12], 24.3 µM (inactive). Moreover, the GI50 was 27.2 µM (inactive) in assay [13], 20.4 µM (inactive) in [14] and 24.8 µM (inactive) in [15].

For the molecule `N#CCCC1(CCC#N)CCCCCCCCC(CCC#N)(CCC#N)C(=O)C1=O`, the GI50 in assay [16] was > 100 µM (inactive); in assay [1], > 100 µM (inactive); in assay [17], > 100 µM (inactive); in assay [18], 36.6 µM (inactive); in assay [3], > 100 µM (inactive); in assay [19], 91 µM (inactive). The GI50 in [5], in [6], in assay [7], in [8], in assay [9] and in [10] was > 100 µM (inactive) each time. Also, the GI50 in [11], in assay [12], in assay [13], in assay [14] and in assay [15] was > 100 µM (inactive) throughout.

Turning to `O=C(Cc1cccs1)N[C@@H]1C(=O)N2C(C(=O)OC(c3ccccc3)c3ccccc3)=C(CO)CS[C@H]12`, the GI50 was > 100 µM (inactive) in [16]; > 100 µM (inactive) in assay [2]; 65.9 µM (inactive) in [17]; > 100 µM (inactive) in assay [4]; > 100 µM (inactive) in [5]; > 100 µM (inactive) in assay [6]. Besides, the GI50 in assay [7] is 47.4 µM (inactive); in assay [8], > 100 µM (inactive); in assay [9], > 100 µM (inactive); in [10], > 100 µM (inactive); in assay [12], > 100 µM (inactive); in assay [13] it was 91.8 µM (inactive). The GI50 in assay [14] and in assay [15] was > 100 µM (inactive) throughout.

Take `O=Cc1c[nH]c2c(=O)[nH]cnc12`: the GI50 in [1], in [2], in assay [3], in assay [4], in assay [5] and in assay [6] was > 100 µM (inactive) in each case. Moreover, the GI50 in assay [7], in assay [8], in assay [9], in assay [10], in assay [11] and in assay [12] was > 100 µM (inactive) throughout. Moreover, the GI50 in [13], in assay [14] and in [15] was > 100 µM (inactive) in each case.

`Cc1cccc2c(=O)c3cccc([C@@H](C)C(=O)O)c3oc12`: the GI50 in assay [16], in assay [1], in [2], in assay [17], in assay [18] and in [3] was > 100 µM (inactive) throughout. For the same molecule, the GI50 was > 100 µM (inactive) in assay [19]; > 100 µM (inactive) in [5]; 80.7 µM (inactive) in assay [6]; > 100 µM (inactive) in assay [7]; > 100 µM (inactive) in [8]; > 100 µM (inactive) in [9]. The GI50 in assay [10] was > 10 µM (inactive); in assay [11] it was > 100 µM (inactive); in [12] it was > 100 µM (inactive); in assay [13] it was > 100 µM (inactive); in [14] it was > 100 µM (inactive); in assay [15], > 100 µM (inactive).

`O.O=C([O-])c1ccccc1Nc1ccccc1C(=O)[O-].[Zn+2]`: the GI50 in [1] was 17.4 µM (inactive); in assay [2] it was 25.5 µM (inactive); in assay [3], > 43.1 µM (inactive); in assay [4] it was 20.6 µM (inactive); in [5], 18.7 µM (inactive); in assay [6] it was 20.7 µM (inactive). The GI50 in assay [7] was 19 µM (inactive); in assay [8] it was 83.8 µM (inactive); in assay [9], 26.9 µM (inactive); in assay [10], 19.7 µM (inactive); in assay [11] it was 21 µM (inactive); in [12], 95.1 µM (inactive). Besides, the GI50 in assay [13] is > 100 µM (inactive); in [14] it was 47.1 µM (inactive); in assay [15] it was 24.7 µM (inactive).
